# Experimental data published in patent US9499550B2 (BRISTOL-MYERS SQUIBB COMPANY, priority 2012, dated 2016).
# Where two headings read alike, the source gives them in different places.
# Assays:
# [1] = tested on: HCV genotype 1b (Con1) replicon in HUH-7 cells; experiment: HCV replicon luciferase reporter assay, genotype 1b; type: cell-based; settings: Hepatitis C virus, Huh-7, 72 h, HCV genotype 1b replicon luciferase, 3 days incubation
# Summary of the method: (§1)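 Replicon inhibition for both genotypes was measured as Renilla luciferase signal (EnduRen, 7.5 μM final, 2 h) after 3-day, 37° C exposure of replicon-bearing HUH-7 cells in 4% FCS DMEM, 0.5% DMSO. The 1b construct carries S1179I; the 1a H77 construct carries P1496L and S2204I. Twenty-point, 3-fold dilutions were fitted four-parametrically for EC50, and CC50 was taken from multiplexed Cell Titer-Blue.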
# [2] = tested on: HCV genotype 1a (H77 strain) replicon in HUH-7 cells; experiment: HCV replicon luciferase reporter assay, genotype 1a; type: cell-based; settings: Hepatitis C virus, Huh-7, 72 h, HCV genotype 1a replicon luciferase, 3 days incubation
# Summary of the method: as §1
SMILES,EC50 ([1]; read-out: LE_1b (EC50)) [nM],"EC50 ([1]; read-out: LE_1b (EC50, range)) [nM]",EC50 ([2]; read-out: LE_1a (EC50)) [nM],"EC50 ([2]; read-out: LE_1a (EC50, range)) [nM]","EC50 ([1]; GETYPE1B, read-out: LE_1b (EC50, range)) [nM]","EC50 ([2]; GETYPE1A, read-out: LE_1a (EC50, range)) [nM]"
"CC[C@@H]1C[C@@H](C)CC/C=C\[C@@H]2C[C@@]2(C(=O)NS(=O)(=O)C2CC2)NC(=O)[C@@H]2C[C@@H](Oc3nccc4c5c(ccc34)OCCO5)CN2C(=O)[C@H]1NC(=O)OC(C)(C)C(C)(F)F [Compound 5335, 3,3-difluoro-2-methylbutan-2-yl((2R,6S,7R,9S,13aS,14aR,16aS,Z)-14a-((cyclopropylsulfonyl)carbamoyl)-2-((2,3-dihydro-[1,4]dioxino[2,3-f]isoquinolin-7-yl)oxy)-7-ethyl-9-methyl-5,16-dioxo-1,2,3,5,6,7,8,9,10,11,13a,14,14a,15,16,16a-hexadecahydrocyclopropa[e]pyrrolo[1,2-a][1,4]diazacyclopentadecin-6-yl)carbamate]",2.03,< 5.46,6.5,4.82 to 103,,
"CC[C@@H]1C[C@H](C)CC/C=C\[C@@H]2C[C@@]2(C(=O)NS(=O)(=O)C2CC2)NC(=O)[C@@H]2C[C@@H](Oc3nccc4c5c(ccc34)OCCO5)CN2C(=O)[C@H]1NC(=O)OC(C)(C)C(C)(F)F [Compound 5336, 3,3-difluoro-2-methylbutan-2-yl((2R,6S,7R,9R,13aS,14aR,16aS,Z)-14a-((cyclopropylsulfonyl)carbamoyl)-2-((2,3-dihydro-[1,4]dioxino[2,3-f]isoquinolin-7-yl)oxy)-7-ethyl-9-methyl-5,16-dioxo-1,2,3,5,6,7,8,9,10,11,13a,14,14a,15,16,16a-hexadecahydrocyclopropa[e]pyrrolo[1,2-a][1,4]diazacyclopentadecin-6-yl)carbamate]",,< 5.46,,< 5.46,,
"CC[C@@H]1C[C@@H](C)CC/C=C\[C@@H]2C[C@@]2(C(=O)NS(=O)(=O)C2CC2)NC(=O)[C@@H]2C[C@@H](Oc3nccc4c5c(ccc34)OCCO5)CN2C(=O)[C@H]1NC(=O)OC(C)(C)C(F)(F)F [Compound 5337, 1,1,1-trifluoro-2-methylpropan-2-yl((2R,6S,7R,9S,13aS,14aR,16aS,Z)-14a-((cyclopropylsulfonyl)carbamoyl)-2-((2,3-dihydro-[1,4]dioxino[2,3-f]isoquinolin-7-yl)oxy)-7-ethyl-9-methyl-5,16-dioxo-1,2,3,5,6,7,8,9,10,11,13a,14,14a,15,16,16a-hexadecahydrocyclopropa[e]pyrrolo[1,2-a][1,4]diazacyclopentadecin-6-yl)carbamate]",,< 5.46,,4.82 to 103,,
"CC[C@@H]1C[C@H](C)CC/C=C\[C@@H]2C[C@@]2(C(=O)NS(=O)(=O)C2CC2)NC(=O)[C@@H]2C[C@@H](Oc3nccc4c5c(ccc34)OCCO5)CN2C(=O)[C@H]1NC(=O)OC(C)(C)C(F)(F)F [Compound 5338, 1,1,1-trifluoro-2-methylpropan-2-yl((2R,6S,7R,9R,13aS,14aR,16aS,Z)-14a-((cyclopropylsulfonyl)carbamoyl)-2-((2,3-dihydro-[1,4]dioxino[2,3-f]isoquinolin-7-yl)oxy)-7-ethyl-9-methyl-5,16-dioxo-1,2,3,5,6,7,8,9,10,11,13a,14,14a,15,16,16a-hexadecahydrocyclopropa[e]pyrrolo[1,2-a][1,4]diazacyclopentadecin-6-yl)carbamate]",,< 5.46,,< 5.46,,
"CC[C@@H]1C[C@@H](C)CC/C=C\[C@@H]2C[C@@]2(C(=O)NS(=O)(=O)C2(C)CC2)NC(=O)[C@@H]2C[C@@H](Oc3nccc4c5c(ccc34)OCCO5)CN2C(=O)[C@H]1NC(=O)OC(C)(C)C [Compound 5339, tert-butyl ((2R,6S,7R,9S,13aS,14aR,16aS,Z)-2-((2,3-dihydro-[1,4]dioxino[2,3-f]isoquinolin-7-yl)oxy)-7-ethyl-9-methyl-14a-(((1-methylcyclopropyl)sulfonyl)carbamoyl)-5,16-dioxo-1,2,3,5,6,7,8,9,10,11,13a,14,14a,15,16,16a-hexadecahydrocyclopropa[e]pyrrolo[1,2-a][1,4]diazacyclopentadecin-6-yl)carbamate]",,< 5.46,,4.82 to 103,,
"CC[C@@H]1C[C@H](C)CC/C=C\[C@@H]2C[C@@]2(C(=O)NS(=O)(=O)C2(C)CC2)NC(=O)[C@@H]2C[C@@H](Oc3nccc4c5c(ccc34)OCCO5)CN2C(=O)[C@H]1NC(=O)OC(C)(C)C [Compound 5340, tert-butyl ((2R,6S,7R,9R,13aS,14aR,16aS,Z)-2-((2,3-dihydro-[1,4]dioxino[2,3-f]isoquinolin-7-yl)oxy)-7-ethyl-9-methyl-14a-(((1-methylcyclopropyl)sulfonyl)carbamoyl)-5,16-dioxo-1,2,3,5,6,7,8,9,10,11,13a,14,14a,15,16,16a-hexadecahydrocyclopropa[e]pyrrolo[1,2-a][1,4]diazacyclopentadecin-6-yl)carbamate]",,< 5.46,,< 5.46,,
"CC[C@@H]1C[C@H](C)CC/C=C\[C@@H]2C[C@@]2(C(=O)NS(=O)(=O)C2CC2)NC(=O)[C@@H]2C[C@@H](Oc3nccc4c5c(ccc34)OCCO5)CN2C(=O)[C@H]1NC(=O)OC(C)(C)C [Compound 5341, tert-butyl ((2R,6S,7R,9R,13aS,14aR,16aS,Z)-14a-((cyclopropylsulfonyl)carbamoyl)-2-((2,3-dihydro-[1,4]dioxino[2,3-f]isoquinolin-7-yl)oxy)-7-ethyl-9-methyl-5,16-dioxo-1,2,3,5,6,7,8,9,10,11,13a,14,14a,15,16,16a-hexadecahydrocyclopropa[e]pyrrolo[1,2-a][1,4]diazacyclopentadecin-6-yl)carbamate]",,< 5.46,,< 5.46,,
C[C@@H]1CC/C=C\[C@@H]2C[C@@]2(C(=O)NS(=O)(=O)C2(CF)CC2)NC(=O)[C@@H]2C[C@@H](Oc3nccc4c5c(ccc34)OCCO5)CN2C(=O)[C@@H](NC(=O)OC(C)(C)C(C)(F)F)[C@H](C)C1 [Compound 5342],,,,,< 5.46,< 5.46
"COc1ccc2c(O[C@@H]3C[C@H]4C(=O)N[C@]5(C(=O)NS(=O)(=O)C6(C)CC6)C[C@H]5/C=C\CC[C@@H](C)C[C@@H](C)[C@H](NC(=O)OC(C)(C)C)C(=O)N4C3)nc(-c3ccc(OC(C)C)cc3)c(OC)c2c1 [Compound 5344, tert-butyl ((2R,6S,7R,9R,13aS,14aR,16aS,Z)-2-((3-(4-isopropoxyphenyl)-4,6-dimethoxyisoquinolin-1-yl)oxy)-7,9-dimethyl-14a-(((1-methylcyclopropyl)sulfonyl)carbamoyl)-5,16-dioxo-1,2,3,5,6,7,8,9,10,11,13a,14,14a,15,16,16a-hexadecahydrocyclopropa[e]pyrrolo[1,2-a][1,4]diazacyclopentadecin-6-yl)carbamate]",,< 5.46,,< 5.46,,
"COc1ccc2c(O[C@@H]3C[C@H]4C(=O)N[C@]5(C(=O)NS(=O)(=O)C6(C)CC6)C[C@H]5/C=C\CC[C@H](C)C[C@@H](C)[C@H](NC(=O)OC(C)(C)C(C)(F)F)C(=O)N4C3)nc(-c3ccc(OC(C)C)cc3)c(OC)c2c1 [Compound 5345, 3,3-difluoro-2-methylbutan-2-yl((2R,6S,7R,9S,13aS,14aR,16aS,Z)-2-((3-(4-isopropoxyphenyl)-4,6-dimethoxyisoquinolin-1-yl)oxy)-7,9-dimethyl-14a-(((1-methylcyclopropyl)sulfonyl)carbamoyl)-5,16-dioxo-1,2,3,5,6,7,8,9,10,11,13a,14,14a,15,16,16a-hexadecahydrocyclopropa[e]pyrrolo[1,2-a][1,4]diazacyclopentadecin-6-yl)carbamate]",,< 5.46,,4.82 to 103,,
